One test deals with Del19/T790M/C797S EGFR. The test is described as follows: EGFR degradation HTRF assay in H1975-clone #28 (DTC) cells. Type of test: cell-based. The settings on record: H1975 # 28 DTC (Del19/T790M/C797S), 16h treatment; for DC50: HTRF; for Dmax (%): maximum percentage of degradation. In outline:
(§1)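 Cells carrying only lentiviral mutant EGFR, since endogenous alleles were removed by CRISPR, received compounds on day 2 for 16 h. Final concentrations ran from 10 uM down in 5-fold steps over 8 doses. After lysis, EGFR levels were quantified by HTRF and DC50 derived by curve fitting.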

For another test, the target named is T1, L858R/T790M/C797S EGFR (Homo sapiens, UniProt P00533, C797S/L858R/T790M).
T1 construct: expressed in transfected cells; host or cells: H1975 clone #25 (lentiviral over-expression, endogenous EGFR knocked out by sgRNA)
The test is described as follows: EGFR degradation HTRF assay in H1975-clone #25 (LTC) cells. In kind it is cell-based. The settings on record: 16h treatment; for DC50: HTRF; for Dmax: NCI-H1975, H1975 # 25-LTC (L858R/T790M/C797S). In outline:
as §1

The mark [1] stands for this setting: H1975 # 25-LTC (L858R/T790M/C797S).
Where [2] appears, read: maximum percentage of degradation.

On to `Cc1cc2cc(n1)-c1cnn(C)c1OCCC[C@@H](C)CN1/C(=N/C2=O)Nc2ccc(CN(C)[C@H]3CCCN(C(=O)[C@@H]4CCN(c5cc(F)c([C@H]6CCC(=O)NC6=O)c(F)c5)C4)C3)cc21` [Example 319, (R)-3-(2,6-difluoro-4-((R)-3-((S)-3-(methyl(((R,E)-1^1,2^6,7-trimethyl-3-oxo-5^2,5^3-dihydro-1^1H,5′ H-11-oxa-4-aza-5(2,1)-benzo[d]imidazola-2(2,4)-pyridina-1(4,5)-pyrazolacycloundecaphane-5^6-yl)methyl)amino)piperidine-1-carbonyl)pyrrolidin-1-yl)phenyl)piperidine-2,6-dione], for which the DC50 in the test with Del19/T790M/C797S EGFR came out at 0.643 nM; at L858R/T790M/C797S EGFR (setting [1]), 1.26 nM. Besides, in the test on Del19/T790M/C797S EGFR, the “Dmax (%)” value is on record as 74.25%. This compound came in with a Dmax on L858R/T790M/C797S EGFR (setting [2]) of 83.4%.
As for `Cc1cc2cc(n1)-c1cnn(C)c1OCCC[C@@H](C)CN1/C(=N/C2=O)Nc2ccc(C(=O)N(C)C3CCN(CCC4CN(c5cc(F)c([C@H]6CCC(=O)NC6=O)c(F)c5)C4)CC3)cc21` [Example 285, (R,E)-N-(1-(2-(1-(4-((R)-2,6-dioxopiperidin-3-yl)-3,5-difluorophenyl)azetidin-3-yl)ethyl)piperidin-4-yl)-N,1^1,2^6,7-tetramethyl-3-oxo-5^2,5^3-dihydro-1^1H,5^1H-11-oxa-4-aza-5(2,1)-benzo[d]imidazola-2(2,4)-pyridina-1(4,5)-pyrazolacycloundecaphane-5^6-carboxamide], in the test on Del19/T790M/C797S EGFR, half-maximal degradation (DC50) was put at 0.667 nM and the “Dmax (%)” value came to 77.98%. Moreover, the DC50 on L858R/T790M/C797S EGFR (setting [1]) is 0.651 nM. The maximal degradation (Dmax) at L858R/T790M/C797S EGFR (setting [2]) came out at 89.8%.
On to `Cc1cc2cc(n1)-c1cnn(C)c1OCC[C@@H]1C[C@H]1CN1/C(=N/C2=O)Nc2ccc(N3CCN(C4CCN(c5cnc(C6CCC(=O)NC6=O)cc5C)CC4)CC3)cc21` (stereo partly shown) [Example 470, 3-(5-(4-(4-((7^1R,7^2S,E)-1^1,2^6-dimethyl-3-oxo-5^2,5^3-dihydro-1^1H,5^1H-10-oxa-4-aza-5(2,1)-benzo[d]imidazola-2(2,4)-pyridina-1(4,5)-pyrazola-7(1,2)-cyclopropanacyclodecaphane-5^6-yl)piperazin-1-yl)piperidin-1-yl)-4-methylpyridin-2-yl)piperidine-2,6-dione], for which, in the test on Del19/T790M/C797S EGFR, it took 0.617 nM to reach half-maximal degradation (DC50) and the “Dmax (%)” value came to 86.76%. Half-maximal degradation on L858R/T790M/C797S EGFR (setting [1]) (DC50) was put at 0.849 nM. On L858R/T790M/C797S EGFR (setting [2]), this compound returned a maximal degradation (Dmax) of 92.1%.
For `Cc1cc2cc(n1)-c1cnn(C)c1OCCC[C@@H](C)CN1/C(=N/C2=O)Nc2ccc(C(=O)N(C)C3CN(CCc4cc(F)c([C@H]5CCC(=O)NC5=O)c(F)c4)C3)cc21` [Example 308] the same measures were 0.646 nM, 64.88%, 0.702 nM and 88.5%.
As for `Cc1cc2cc(n1)-c1cnn(C)c1OCCC[C@@H](C)CN1/C(=N/C2=O)Nc2ccc(CN3CCN(C(=O)[C@@H]4CCN(c5cc(F)c([C@H]6CCC(=O)NC6=O)c(F)c5)C4)C[C@@H]3CO)cc21` [Example 195, (R)-3-(2,6-difluoro-4-((R)-3-((R)-3-(hydroxymethyl)-4-(((R,E)-1^1,2^5,7-trimethyl-3-oxo-5^2,5^3-dihydro-1^1H,5^1H-11-oxa-4-aza-5(2,1)-benzo[d]imidazola-2(2,4)-pyridina-(4,5)-pyrazolacycloundecaphane-5^6-yl)methyl)piperazine-1-carbonyl)pyrrolidin-1-yl)phenyl)piperidine-2,6-dione], in the test with Del19/T790M/C797S EGFR, the half-maximal degradation concentration (DC50) was 0.712 nM and the “Dmax (%)” value was determined as 76.37%. The DC50 on L858R/T790M/C797S EGFR (setting [1]) came out at 0.731 nM. For the same compound, on L858R/T790M/C797S EGFR (setting [2]), the Dmax came to 85.5%.
For `Cc1cc2cc(n1)-c1cnn(C)c1OCCC[C@@H](C)CN1/C(=N/C2=O)Nc2ccc(C(=O)N(C)C3C[C@H]4CN(CCc5cc(F)c([C@H]6CCC(=O)NC6=O)c(F)c5)C[C@@H]4C3)cc21` [Example 293, (R,E)-N—((3aR,6aR)-2-(4-((R)-2,6-dioxopiperidin-3-yl)-3,5-difluorophenethyl)octahydrocyclopenta[c]pyrrol-5-yl)-N,1^1,2^6,7-tetramethyl-3-oxo-5^2,5^1-dihydro-1^1H,5^1H-11-oxa-4-aza-5(2,1)-benzo[d]imidazola-2(2,4)-pyridina-1(4,5)-pyrazolacycloundecaphane-5^6-carboxamide] the same measures were 0.997 nM, 75.49%, 1.56 nM and 86.3%.
Regarding `Cc1cc2cc(n1)-c1cnn(C)c1OCCC[C@@H](C)CN1/C(=N/C2=O)Nc2ccc(CN3C4CCC3CN(C(=O)[C@@H]3CCN(c5cc(F)c([C@H]6CCC(=O)NC6=O)c(F)c5)C3)C4)cc21` [Example 187, (3R)-3-(2,6-difluoro-4-((3R)-3-(8-(((R,E)-1^1,2,7-trimethyl-3-oxo-5^2,5^3-dihydro-1^1H,5^1H-11-oxa-4-aza-5(2,1)-benzo[d]imidazola-2(2,4)-pyridina-1(4,5)-pyrazolacycloundecaphane-5^6-yl)methyl)-3,8-diazabicyclo[3.2.1]octane-3-carbonyl)pyrrolidin-1-yl)phenyl)piperidine-2,6-dione], in the test with Del19/T790M/C797S EGFR, it took 1.8 nM to reach half-maximal degradation (DC50) and the “Dmax (%)” value was found to be 80.62%. This compound gave a DC50 at L858R/T790M/C797S EGFR (setting [1]) of 1.01 nM. Moreover, the Dmax at L858R/T790M/C797S EGFR (setting [2]) came out at 86.1%.
For `Cc1cc2cc(n1)-c1c(C(F)F)nn(C)c1OCCC[C@@H](C)CN1/C(=N/C2=O)Nc2ccc(CN3CCN(C(=O)C4CN(c5cc(F)c([C@H]6CCC(=O)NC6=O)c(F)c5)C4)CC3)cc21` [Example 64, (R)-3-(4-(3-(4-(((R,E)-13-(difluoromethyl)-1^1,2^6,7-trimethyl-3-oxo-5^2,5^3-dihydro-1^1H,5^1H-11-oxa-4-aza-5(2,1)-benzo[d]imidazola-2(2,4)-pyridina-1(4,5)-pyrazolacycloundecaphane-5^6-yl)methyl)piperazine-1-carbonyl)azetidin-1-yl)-2,6-difluorophenyl)piperidine-2,6-dione] the same measures were 1.51 nM, 80.65%, 3.13 nM and 76.8%.
As to `Cc1cc2cc(n1)-c1cnn(C)c1OCCC[C@@H](C)CN1/C(=N/C2=O)Nc2ccc(C3CCN(CCc4cc(F)c([C@H]5CCC(=O)NC5=O)c(F)c4)CC3)cc21` [Example 330, (R)-3-(2,6-difluoro-4-(2-(4-((R,E)-1^1,2^6,7-trimethyl-3-oxo-5^2,5^3-dihydro-1^1H,5^1H-11-oxa-4-aza-5(2,1)-benzo[d]imidazola-2(2,4)-pyridina-1(4,5)-pyrazolacycloundecaphane-5^6-yl)piperidin-1-yl)ethyl)phenyl)piperidine-2,6-dione], in the test with Del19/T790M/C797S EGFR, the DC50 was 0.633 nM and the “Dmax (%)” value is listed as 66.1%. The compound further showed a half-maximal degradation concentration (DC50) at L858R/T790M/C797S EGFR (setting [1]) of 0.972 nM. For the same compound, the Dmax at L858R/T790M/C797S EGFR (setting [2]) worked out at 87.1%.
Take “(R,E)-N—((S)-1-(4-((R)-2,6-dioxopiperidin-3-yl)-3,5-difluorophenethyl)azepan-4-yl)-N,1^1,2^6,7-tetramethyl-3-oxo-5^2,5^3-dihydro-1^1H,5^1H-11-oxa-4-aza-5(2,1)-benzo[d]imidazola-2(2,4)-pyridina-1(4,5)-pyrazolacycloundecaphane-5^6-carboxamide [Example 340]”: the values for the DC50 in the test with Del19/T790M/C797S EGFR and on L858R/T790M/C797S EGFR (setting [1]) were 0.587 nM and 0.28 nM, respectively. Further, the “Dmax (%)” value in the test with Del19/T790M/C797S EGFR was found to be 83.73%; on L858R/T790M/C797S EGFR (H1975 # 25-LTC (L858R/T790M/C797S), maximum percentage of degradation), 91.69%.
Consider `Cc1cc2cc(n1)-c1cnn(C)c1OCCC[C@@H](C)CN1/C(=N/C2=O)Nc2ccc(C(=O)N[C@@H]3CCN(CCc4cc(F)c([C@H]5CCC(=O)NC5=O)c(F)c4)CC3(F)F)cc21` [Example 260, (R,E)-N—((R)-1-(4-((R)-2,6-dioxopiperidin-3-yl)-3,5-difluorophenethyl)-3,3-difluoropiperidin-4-yl)-1,2^6,7-trimethyl-3-oxo-5^2,5^3-dihydro-1^1H,5^1H-11-oxa-4-aza-5(2,1)-benzo[d]imidazola-2(2,4)-pyridina-1(4,5)-pyrazolacycloundecaphane-5^6-carboxamide], for which, in the test on Del19/T790M/C797S EGFR, half-maximal degradation (DC50) was put at 0.633 nM and the “Dmax (%)” value is recorded as 86.51%. Besides, at L858R/T790M/C797S EGFR (setting [1]), the DC50 came to 0.544 nM. The Dmax at L858R/T790M/C797S EGFR (setting [2]) was 94%.
For `COC[C@@H]1CN(c2cc(F)c([C@H]3CCC(=O)NC3=O)c(F)c2)CCN1C(=O)C1CCN(c2ccc3c(c2)N2C[C@H](C)CCCOc4c(cnn4C)-c4cc(cc(C)n4)C(=O)/N=C/2N3)CC1` [Example 357, (R)-3-(2,6-difluoro-4-((S)-3-(methoxymethyl)-4-(1-((R,E)-1^1,2^6,7-trimethyl-3-oxo-5^2,5^3-dihydro-1^1H,5^1H-11-oxa-4-aza-5(2,1)-benzo[d]imidazola-2(2,4)-pyridina-1(4,5)-pyrazolacycloundecaphane-5^6-yl)piperidine-4-carbonyl)piperazin-1-yl)phenyl)piperidine-2,6-dione] the same measures were 0.903 nM, 73.73%, 0.824 nM and 87.6%.
Take `Cc1cc2cc(n1)-c1cnn(C)c1OCCC[C@@H](C)CN1/C(=N/C2=O)Nc2ccc(N3CCC(N4CCN(c5cc(F)c([C@H]6CCC(=O)NC6=O)c(F)c5)CC4=O)CC3)cc21` [Example 450, (R)-3-(2,6-difluoro-4-(3-oxo-4-(1-((R,E)-1^1,2^6,7-trimethyl-3-oxo-5^2,5^3-dihydro-1^1H,5^1H-11-oxa-4-aza-5(2,1)-benzo[d]imidazola-2(2,4)-pyridina-1(4,5)-pyrazolacycloundecaphane-5^6-yl)piperidin-4-yl)piperazin-1-yl)phenyl)piperidine-2,6-dione]: the DC50 was 0.647 nM with Del19/T790M/C797S EGFR and 0.678 nM at L858R/T790M/C797S EGFR (setting [1]). The “Dmax (%)” value with Del19/T790M/C797S EGFR is recorded as 83.01%. The same compound showed a Dmax on L858R/T790M/C797S EGFR (setting [2]) of 88.7%.

The values above are taken from US20240342292A1, “Compounds for the Degradation of EGFR Kinase” (BeiGene Switzerland GmbH, priority 2021, published 2024).
